According to ChEMBL document CHEMBL1136014 (J Med Chem, 2002):

How the values were obtained:
[1] = test system: Rattus norvegicus; test: Effects on liver was determined from serum cholesterol levels in female (5) rats after 2 weeks of daily oral administration of compound at 300 mg/kg (Control = 0.73+/-0.05); format: functional
[2] = test system: Rattus norvegicus; test: Effects on liver was determined from serum alanine aminotransferase levels in female (5) rats after 2 weeks of daily oral administration of compound at 300 mg/kg (Control = 23+/-5); format: functional
[3] = test system: Rattus norvegicus; test: Serum concentrations of T3 in rats after 2 weeks of daily oral administration of compound at 30 mg/kg (Control = 0.74+/-0.15); format: functional
[4] = test system: Rattus norvegicus; test: Serum concentrations of T4 in rats after 2 weeks of daily oral administration of compound at 100 mg/kg (Control = 33.1+/-5.00); format: functional
[5] = test system: Rattus norvegicus; test: Serum concentrations of T4 in rats after 2 weeks of daily oral administration of compound at 300 mg/kg (Control = 33.1+/-5.00); format: functional
[6] = test system: Rattus norvegicus; test: Effects on liver was determined from serum aspartate aminotransferase levels in male (5) rats after 2 weeks of daily oral administration of compound at 300 mg/kg (Control = 111+/-21); format: functional
[7] = test system: Rattus norvegicus; test: Effects on liver was determined from serum aspartate aminotransferase levels in male (5) rats after 2 weeks of daily oral administration of compound at 30 mg/kg (Control = 111+/-21); format: functional
[8] = test system: Rattus norvegicus; test: Serum concentrations of T4 in rats after 2 weeks of daily oral administration of compound at 30 mg/kg (Control = 33.1+/-5.00); format: functional
[9] = test system: Rattus norvegicus; test: Effects on liver was determined from serum cholesterol levels in female (5) rats after 2 weeks of daily oral administration of compound at 100 mg/kg (Control = 0.73+/-0.05); format: functional
[10] = test system: Rattus norvegicus; test: Serum concentrations of Thyrotropin in rats after 2 weeks of daily oral administration of compound at 100 mg/kg (Control = 11.00+/-1.97); format: functional
[11] = test system: Rattus norvegicus; test: Effects on liver was determined from serum aspartate aminotransferase levels in female (5) rats after 2 weeks of daily oral administration of compound at 100 mg/kg (Control = 106+/-18); format: functional
[12] = test system: Rattus norvegicus; test: Effects on liver was determined from serum aspartate aminotransferase levels in female (5) rats after 2 weeks of daily oral administration of compound at 300 mg/kg (Control = 106+/-18); format: functional
[13] = test system: Rattus norvegicus; test: Effects on liver was determined from serum alanine aminotransferase levels in male (5) rats after 2 weeks of daily oral administration of compound at 30 mg/kg (Control = 30+/-3); format: functional
[14] = molecular target: Sodium channel alpha subunits; brain (Types I, II, III) (Rattus norvegicus) (UniProt P04775+P04774+P08104); settings: Forebrain, Membrane, 2 uM
[15] = test system: Rattus norvegicus; test: Effects on liver was determined from serum cholesterol levels in male (5) rats after 2 weeks of daily oral administration of compound at 300 mg/kg (Control = 0.67+/-0.13); format: functional
[16] = test system: Rattus norvegicus; test: Effects on liver was determined from serum cholesterol levels in male (5) rats after 2 weeks of daily oral administration of compound at 100 mg/kg (Control = 0.67+/-0.13); format: functional
[17] = test system: Rattus norvegicus; test: Effects on liver was determined from serum alanine aminotransferase levels in male (5) rats after 2 weeks of daily oral administration of compound at 300 mg/kg (Control = 30+/-3); format: functional
[18] = test system: Rattus norvegicus; test: Effects on liver was determined from serum aspartate aminotransferase levels in male (5) rats after 2 weeks of daily oral administration of compound at 100 mg/kg (Control = 111+/-21); format: functional
[19] = test system: Rattus norvegicus; test: Serum concentrations of T3 in rats after 2 weeks of daily oral administration of compound at 100 mg/kg (Control = 0.74+/-0.15); format: functional
[20] = molecular target: L-type Ca2+ channel, dihydropyridine site (Rattus norvegicus, UniProt P22002+P27732+Q02485); test: Percentage inhibition of [3H]nitrendipine binding to L-type [Ca2+] channel dihydropyridine site in rat cortical membranes at 2 uM (70-80 %); format: cell membranes, Membrane; settings: probe [3H]nitrendipine
[21] = test system: Rattus norvegicus; test: Effects on liver was determined from serum alanine aminotransferase levels in male (5) rats after 2 weeks of daily oral administration of compound at 100 mg/kg (Control = 30+/-3); format: functional
[22] = test system: Rattus norvegicus; test: Effects on liver was determined from serum aspartate aminotransferase levels in female (5) rats after 2 weeks of daily oral administration of compound at 30 mg/kg (Control = 106+/-18); format: functional
[23] = test system: Rattus norvegicus; test: Effects on liver was determined from serum cholesterol levels in male (5) rats after 2 weeks of daily oral administration of compound at 30 mg/kg (Control = 0.67+/-0.13); format: functional
[24] = test system: Rattus norvegicus; test: Effects on liver was determined from serum alanine aminotransferase levels in female (5) rats after 2 weeks of daily oral administration of compound at 100 mg/kg (Control = 23+/-5); format: functional
[25] = test system: Rattus norvegicus; test: Effects on liver was determined from serum cholesterol levels in female (5) rats after 2 weeks of daily oral administration of compound at 30 mg/kg (Control = 0.73+/-0.05); format: functional
[26] = test system: Rattus norvegicus; test: Serum concentrations of Thyrotropin in rats after 2 weeks of daily oral administration of compound at 30 mg/kg (Control = 11.00+/-1.97); format: functional
[27] = test system: Rattus norvegicus; test: Serum concentrations of Thyrotropin in rats after 2 weeks of daily oral administration of compound at 300 mg/kg (Control = 11.00+/-1.97); format: functional
[28] = test system: Rattus norvegicus; test: Serum concentrations of T3 in rats after 2 weeks of daily oral administration of compound at 300 mg/kg (Control = 0.74+/-0.15); format: functional
[29] = test system: Rattus norvegicus; test: Effects on liver was determined from serum alanine aminotransferase levels in female (5) rats after 2 weeks of daily oral administration of compound at 30 mg/kg (Control = 23+/-5); format: functional
[30] = test system: Cavia porcellus; test: Action potential duration at 50% levels of repolarization in guinea pig papillary muscles after twenty days of daily i.p. injection of 40 mg/kg (Control = 168); format: functional, Muscle tissue; settings: route intraperitoneal
[31] = test system: CHO-K1; test: Antagonism of compound towards thyroid response element (TRAF alpha) in CHO-K1 cells; settings: Cricetulus griseus
[32] = test system: CHO-K1; test: Antagonism of compound towards thyroid response element (TRAF beta) in CHO-K1 cells; settings: Cricetulus griseus
[33] = molecular target: T1, Thyroid hormone receptor beta (Homo sapiens, UniProt P10828)
T1 sequence (P10828 whole entry): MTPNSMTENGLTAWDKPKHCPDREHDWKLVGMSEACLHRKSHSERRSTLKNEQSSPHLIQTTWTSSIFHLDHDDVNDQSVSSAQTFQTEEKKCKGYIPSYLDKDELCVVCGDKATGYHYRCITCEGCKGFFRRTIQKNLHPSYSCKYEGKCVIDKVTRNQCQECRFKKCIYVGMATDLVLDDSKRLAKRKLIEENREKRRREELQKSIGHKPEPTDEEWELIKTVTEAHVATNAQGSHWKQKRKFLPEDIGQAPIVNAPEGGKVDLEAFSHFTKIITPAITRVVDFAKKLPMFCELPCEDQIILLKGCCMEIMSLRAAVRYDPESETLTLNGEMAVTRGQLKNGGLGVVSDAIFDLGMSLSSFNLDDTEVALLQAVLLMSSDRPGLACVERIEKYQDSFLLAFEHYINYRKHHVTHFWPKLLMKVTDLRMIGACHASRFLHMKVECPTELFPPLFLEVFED
Description: Concentration required to inhibit 50% of binding of [125I]T3 to human Thyroid hormone receptor beta 1 in CHO-K1 cells

[34] = test system: CHO-K1; test: Agonism of compound towards thyroid response element (TRAF alpha) in CHO-K1 cells; format: functional, cell-based; settings: Cricetulus griseus
[35] = test system: Cavia porcellus; test: Action potential duration at 90% levels of repolarization in guinea pig papillary muscles after twenty days of daily i.p. injection of 40 mg/kg Control = 186); format: functional, Muscle tissue; settings: route intraperitoneal
[36] = test system: Cavia porcellus; test: Ratio of action potential duration (APD90/APD50) in guinea pig papillary muscles after twenty days of daily i.p. injection of 40 mg/kg Control = 1.10); format: functional, Papillary muscle; settings: route intraperitoneal
[37] = test system: Cavia porcellus; test: Vmax of the action potential amplitude in guinea pig papillary muscles after twenty days of daily i.p. injection of 40 mg/kg Control = 205); format: functional; parameters: dose 40 mg/kg; settings: Muscle tissue
[38] = test system: Cavia porcellus; test: Effective refractory period in guinea pig papillary muscles after twenty days of daily i.p. injection of 40 mg/kg Control = 201); format: functional, Muscle tissue; settings: route intraperitoneal
[39] = test system: Cavia porcellus; test: Action potential amplitude of compound on guinea pig papillary muscles after twenty days of daily i.p. injection of 40 mg/kg Control = 115); format: functional, Muscle tissue; settings: route intraperitoneal
[40] = molecular target: T2, Thyroid hormone receptor alpha (Homo sapiens, UniProt P10827)
T2 sequence (P10827 whole entry): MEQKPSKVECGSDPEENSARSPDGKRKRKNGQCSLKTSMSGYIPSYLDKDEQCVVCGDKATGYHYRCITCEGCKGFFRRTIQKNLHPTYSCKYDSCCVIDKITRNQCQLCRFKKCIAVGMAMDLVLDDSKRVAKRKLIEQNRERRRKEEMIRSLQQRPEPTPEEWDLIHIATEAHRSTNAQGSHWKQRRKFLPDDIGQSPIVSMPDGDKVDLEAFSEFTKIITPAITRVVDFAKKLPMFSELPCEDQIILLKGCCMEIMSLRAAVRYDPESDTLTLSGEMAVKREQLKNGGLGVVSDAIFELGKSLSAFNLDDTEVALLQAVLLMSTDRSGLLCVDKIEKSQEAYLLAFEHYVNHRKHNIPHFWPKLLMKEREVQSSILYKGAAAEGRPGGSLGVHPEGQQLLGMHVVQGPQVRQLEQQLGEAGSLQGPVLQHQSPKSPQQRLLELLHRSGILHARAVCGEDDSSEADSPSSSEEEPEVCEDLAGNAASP
Description: Concentration required to inhibit 50% of binding of [125I]-T3 to human Thyroid hormone receptor alpha-1 in CHO-K1 cells

[41] = test system: CHO-K1; test: Agonism of compound towards thyroid response element (TRAF beta) in CHO-K1 cells; format: functional, cell-based; settings: Cricetulus griseus
[42] = test system: CHO-K1; test: Percentage agonism of compound towards thyroid response element (TRAF alpha) in CHO-K1 cells at 10 uM; Partial agonist; format: functional, Cricetulus griseus

Sequence of Sodium channel alpha subunits; brain (Types I, II, III) (Rattus norvegicus) (P04775 whole entry, looked up, other chains not shown): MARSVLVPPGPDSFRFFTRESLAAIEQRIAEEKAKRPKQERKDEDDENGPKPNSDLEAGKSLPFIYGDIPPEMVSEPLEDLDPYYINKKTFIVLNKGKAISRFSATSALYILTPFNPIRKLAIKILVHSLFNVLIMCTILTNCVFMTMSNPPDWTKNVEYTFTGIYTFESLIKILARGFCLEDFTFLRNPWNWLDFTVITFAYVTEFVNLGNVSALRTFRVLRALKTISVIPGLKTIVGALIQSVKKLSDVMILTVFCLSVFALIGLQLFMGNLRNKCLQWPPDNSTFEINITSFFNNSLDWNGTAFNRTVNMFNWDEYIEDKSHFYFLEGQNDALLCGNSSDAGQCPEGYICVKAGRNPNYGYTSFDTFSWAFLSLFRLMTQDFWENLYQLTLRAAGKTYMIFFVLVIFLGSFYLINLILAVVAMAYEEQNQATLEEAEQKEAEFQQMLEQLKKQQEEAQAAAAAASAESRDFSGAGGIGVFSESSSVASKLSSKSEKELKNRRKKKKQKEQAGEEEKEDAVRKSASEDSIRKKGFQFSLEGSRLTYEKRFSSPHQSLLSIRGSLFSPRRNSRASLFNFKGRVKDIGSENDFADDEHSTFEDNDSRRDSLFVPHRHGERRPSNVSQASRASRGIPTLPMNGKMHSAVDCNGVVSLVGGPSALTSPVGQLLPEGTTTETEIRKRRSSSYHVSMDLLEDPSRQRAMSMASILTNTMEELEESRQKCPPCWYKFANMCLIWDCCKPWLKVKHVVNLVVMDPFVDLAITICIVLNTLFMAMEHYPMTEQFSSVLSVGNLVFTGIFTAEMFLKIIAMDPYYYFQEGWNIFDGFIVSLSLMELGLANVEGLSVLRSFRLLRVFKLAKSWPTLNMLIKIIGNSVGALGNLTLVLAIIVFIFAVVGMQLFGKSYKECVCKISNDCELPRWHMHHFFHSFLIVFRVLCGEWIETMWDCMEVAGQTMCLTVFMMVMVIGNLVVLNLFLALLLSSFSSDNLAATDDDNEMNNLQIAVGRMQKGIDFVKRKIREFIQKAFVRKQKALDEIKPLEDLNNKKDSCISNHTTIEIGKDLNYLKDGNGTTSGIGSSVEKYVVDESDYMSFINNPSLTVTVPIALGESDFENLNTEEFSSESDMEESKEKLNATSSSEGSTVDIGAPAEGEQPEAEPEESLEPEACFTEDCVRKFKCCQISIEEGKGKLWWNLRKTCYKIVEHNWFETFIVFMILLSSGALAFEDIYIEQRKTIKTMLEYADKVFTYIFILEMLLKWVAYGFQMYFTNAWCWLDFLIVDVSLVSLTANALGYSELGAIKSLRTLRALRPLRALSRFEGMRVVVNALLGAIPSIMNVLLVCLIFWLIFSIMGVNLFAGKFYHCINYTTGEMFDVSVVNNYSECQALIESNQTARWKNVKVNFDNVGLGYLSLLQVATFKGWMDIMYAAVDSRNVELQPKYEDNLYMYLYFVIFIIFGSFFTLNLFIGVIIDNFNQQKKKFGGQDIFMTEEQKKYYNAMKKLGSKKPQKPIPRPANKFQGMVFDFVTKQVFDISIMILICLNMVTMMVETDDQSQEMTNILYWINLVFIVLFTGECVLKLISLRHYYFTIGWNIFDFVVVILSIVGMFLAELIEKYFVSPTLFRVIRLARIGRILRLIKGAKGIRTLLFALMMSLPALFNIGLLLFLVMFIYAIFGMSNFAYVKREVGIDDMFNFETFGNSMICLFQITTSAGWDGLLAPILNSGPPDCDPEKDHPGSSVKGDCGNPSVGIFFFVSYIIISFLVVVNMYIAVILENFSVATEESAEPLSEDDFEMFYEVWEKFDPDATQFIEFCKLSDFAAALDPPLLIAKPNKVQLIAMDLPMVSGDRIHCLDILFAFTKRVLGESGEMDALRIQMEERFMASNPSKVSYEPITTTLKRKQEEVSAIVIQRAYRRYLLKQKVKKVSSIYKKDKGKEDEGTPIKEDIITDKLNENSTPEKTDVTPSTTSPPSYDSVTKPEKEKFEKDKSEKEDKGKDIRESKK
Sequence of Sodium channel alpha subunits; brain (Types I, II, III) (Rattus norvegicus) (P08104 whole entry, looked up, other chains not shown): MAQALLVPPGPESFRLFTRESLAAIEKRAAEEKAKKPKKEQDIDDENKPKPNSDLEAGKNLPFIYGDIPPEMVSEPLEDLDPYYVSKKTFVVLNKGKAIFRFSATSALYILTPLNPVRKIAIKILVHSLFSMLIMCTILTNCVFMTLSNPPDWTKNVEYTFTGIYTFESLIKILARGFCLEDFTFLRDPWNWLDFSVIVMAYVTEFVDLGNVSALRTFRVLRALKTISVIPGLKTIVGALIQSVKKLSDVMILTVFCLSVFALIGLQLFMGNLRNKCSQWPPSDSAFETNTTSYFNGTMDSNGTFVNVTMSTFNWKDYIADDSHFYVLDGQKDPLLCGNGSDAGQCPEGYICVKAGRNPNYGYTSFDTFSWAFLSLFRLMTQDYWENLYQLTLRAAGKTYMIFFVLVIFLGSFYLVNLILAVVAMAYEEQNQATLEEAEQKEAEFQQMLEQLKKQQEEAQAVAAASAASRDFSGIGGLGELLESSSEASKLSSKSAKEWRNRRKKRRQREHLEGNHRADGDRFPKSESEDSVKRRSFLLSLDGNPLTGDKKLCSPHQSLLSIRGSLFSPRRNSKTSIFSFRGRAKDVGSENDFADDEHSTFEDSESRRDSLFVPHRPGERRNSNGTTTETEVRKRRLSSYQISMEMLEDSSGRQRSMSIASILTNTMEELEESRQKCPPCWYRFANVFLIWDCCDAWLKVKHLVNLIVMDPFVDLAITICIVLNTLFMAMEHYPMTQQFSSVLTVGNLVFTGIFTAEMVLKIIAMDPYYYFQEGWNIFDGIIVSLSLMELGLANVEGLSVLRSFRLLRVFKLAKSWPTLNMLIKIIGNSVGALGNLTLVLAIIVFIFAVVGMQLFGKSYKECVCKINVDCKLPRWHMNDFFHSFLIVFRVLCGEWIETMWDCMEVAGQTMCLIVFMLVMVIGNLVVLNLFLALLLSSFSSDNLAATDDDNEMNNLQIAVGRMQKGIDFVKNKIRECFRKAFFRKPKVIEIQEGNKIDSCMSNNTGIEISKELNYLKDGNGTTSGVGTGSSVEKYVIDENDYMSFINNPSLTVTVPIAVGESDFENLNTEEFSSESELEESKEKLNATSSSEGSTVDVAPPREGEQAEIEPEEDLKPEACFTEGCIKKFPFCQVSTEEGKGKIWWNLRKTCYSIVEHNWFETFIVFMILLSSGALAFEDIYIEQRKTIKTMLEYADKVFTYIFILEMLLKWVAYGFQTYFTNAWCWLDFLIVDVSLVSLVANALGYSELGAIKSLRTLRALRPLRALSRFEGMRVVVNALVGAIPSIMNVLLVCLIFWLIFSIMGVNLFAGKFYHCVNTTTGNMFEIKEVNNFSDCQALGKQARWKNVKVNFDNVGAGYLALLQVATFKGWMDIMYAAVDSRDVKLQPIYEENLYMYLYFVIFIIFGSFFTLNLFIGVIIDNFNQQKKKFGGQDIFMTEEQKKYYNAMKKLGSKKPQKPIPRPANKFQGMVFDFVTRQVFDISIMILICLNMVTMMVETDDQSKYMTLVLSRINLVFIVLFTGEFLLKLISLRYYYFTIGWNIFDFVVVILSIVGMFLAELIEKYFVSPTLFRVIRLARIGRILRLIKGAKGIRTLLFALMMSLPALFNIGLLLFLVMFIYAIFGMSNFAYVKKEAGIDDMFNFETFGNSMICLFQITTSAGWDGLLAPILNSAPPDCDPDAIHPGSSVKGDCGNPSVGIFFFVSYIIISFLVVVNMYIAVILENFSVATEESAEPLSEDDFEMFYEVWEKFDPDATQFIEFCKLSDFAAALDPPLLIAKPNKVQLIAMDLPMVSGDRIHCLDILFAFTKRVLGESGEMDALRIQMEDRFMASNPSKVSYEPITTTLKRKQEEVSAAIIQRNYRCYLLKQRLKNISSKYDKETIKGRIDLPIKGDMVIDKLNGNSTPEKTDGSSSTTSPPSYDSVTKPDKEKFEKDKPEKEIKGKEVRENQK

Structure (SMILES)	Cholestrol levels [1] [g/L]	ALAT levels [2] [IU/l]	Thyroid status [3] [nM l-1]	Thyroid status [4] [nM l-1]	Thyroid status [5] [nM l-1]	ASAT levels [6] [IU/l]	ASAT levels [7] [IU/l]	Thyroid status [8] [nM l-1]	Cholestrol levels [9] [g/L]	Thyroid status [10] [ng/mL]	ASAT levels [11] [IU/l]	ASAT levels [12] [IU/l]	ALAT levels [13] [IU/l]	Cholestrol levels [15] [g/L]	Cholestrol levels [16] [g/L]	IC50 [31] [µM]	IC50 [32] [µM]	EC50 [34] [µM]	IC50 [40] [µM]	EC50 [41] [µM]	further results
CCCCc1oc2ccccc2c1C(=O)c1cc(I)c(OCCN(CC)CC)c(I)c1 [AMIODARONE]	1.12	284	0.66	43.2	22.3	550	110	43.9	1.18	16.1	133	2052	35	1.39	1.26						inhibition [14]: 70%; ALAT levels [17]: 103 IU/l; ASAT levels [18]: 131 IU/l; Thyroid status [19]: 0.66 nM l-1; inhibition at 2 µM [20]: 80%; ALAT levels [21]: 62 IU/l; ASAT levels [22]: 109 IU/l; Cholestrol levels [23]: 0.77 g/L; ALAT levels [24]: 62 IU/l; Cholestrol levels [25]: 0.89 g/L; Thyroid status [26]: 13.9 ng/mL; Thyroid status [27]: 11.2 ng/mL; Thyroid status [28]: 0.28 nM l-1; ALAT levels [29]: 23 IU/l
Cc1oc2ccccc2c1Cc1cc(I)c(OCC(=O)O)c(I)c1	0.93	54	0.52	37.1	46.6	102	104	35.1	0.69	16.6	114	115	30	0.91	0.78	2.2	4.1	> 10	4.5	> 10	APD50 [30]: 182 ms; IC50 [33]: 5.1 µM; ALAT levels [17]: 67 IU/l; ASAT levels [18]: 111 IU/l; Thyroid status [19]: 0.51 nM l-1; ALAT levels [21]: 43 IU/l; APD90 [35]: 219 ms; ASAT levels [22]: 101 IU/l; Cholestrol levels [23]: 0.63 g/L; ALAT levels [24]: 40 IU/l; Ratio [36]: 1.22; Cholestrol levels [25]: 0.68 g/L; Thyroid status [26]: 14.2 ng/mL; Thyroid status [27]: 16.6 ng/mL; Vmax [37]: 192 V s-1; Thyroid status [28]: 0.52 nM l-1; ERP [38]: 223 ms; APA [39]: 116 mV; ALAT levels [29]: 21 IU/l
CCCCc1oc2ccccc2c1C(=O)c1cc(I)c(OCC(=O)O)c(I)c1																> 10	> 10	> 10	1.4	> 10	
Cc1oc2ccccc2c1C(=O)c1cc(I)c(OCC(=O)O)c(I)c1																> 10	> 10	0.45	0.82	1.7	IC50 [33]: 0.48 µM; Effect [42]: 56%
